# Measurements reported in ChEMBL document CHEMBL2073891, “Interaction of digoxin with antihypertensive drugs via MDR1” (Life Sci, 2002).
# Legend:
# Type in all cases: functional, cell-based
# Conditions in all cases: pig, llc-pk1, 50 µM
# [1] = target: T1, ATP-dependent translocase ABCB1 (Homo sapiens, UniProt P08183); assay: TP_TRANSPORTER: inhibition of Digoxin transepithelial transport (basal to apical)(Digoxin: 0.1 uM, Atenolol: 50 uM) in MDR1-expressing LLC-PK1 cells
# [2] = target: T1, ATP-dependent translocase ABCB1; assay: TP_TRANSPORTER: inhibition of Digoxin transepithelial transport (basal to apical)(Digoxin: 0.1 uM, Candesartan cilexetil: 50 uM) in MDR1-expressing LLC-PK1 cells
# [3] = target: T1, ATP-dependent translocase ABCB1; assay: TP_TRANSPORTER: inhibition of Digoxin transepithelial transport (basal to apical)(Digoxin: 0.1 uM, Candesartan: 50 uM) in MDR1-expressing LLC-PK1 cells
# [4] = target: T1, ATP-dependent translocase ABCB1; assay: TP_TRANSPORTER: inhibition of Digoxin transepithelial transport (basal to apical)(Digoxin: 0.1 uM, Captopril: 50 uM) in MDR1-expressing LLC-PK1 cells
# [5] = target: T1, ATP-dependent translocase ABCB1; assay: TP_TRANSPORTER: inhibition of Digoxin transepithelial transport (basal to apical)(Digoxin: 0.1 uM, Carvedilol: 50 uM) in MDR1-expressing LLC-PK1 cells
# [6] = target: T1, ATP-dependent translocase ABCB1; assay: TP_TRANSPORTER: inhibition of Digoxin transepithelial transport (basal to apical)(Digoxin: 0.1 uM, Cilazaprilat: 50 uM) in MDR1-expressing LLC-PK1 cells
# [7] = target: T1, ATP-dependent translocase ABCB1; assay: TP_TRANSPORTER: inhibition of Digoxin transepithelial transport (basal to apical)(Digoxin: 0.1 uM, Cilazapril: 50 uM) in MDR1-expressing LLC-PK1 cells
# [8] = target: T1, ATP-dependent translocase ABCB1; assay: TP_TRANSPORTER: inhibition of Digoxin transepithelial transport (basal to apical)(Digoxin: 0.1 uM, Delapril: 50 uM) in MDR1-expressing LLC-PK1 cells
# [9] = target: T1, ATP-dependent translocase ABCB1; assay: TP_TRANSPORTER: inhibition of Digoxin transepithelial transport (basal to apical)(Digoxin: 0.1 uM, Doxazosin: 50 uM) in MDR1-expressing LLC-PK1 cells
# [10] = target: T1, ATP-dependent translocase ABCB1; assay: TP_TRANSPORTER: inhibition of Digoxin transepithelial transport (basal to apical)(Digoxin: 0.1 uM, Enalapril: 50 uM) in MDR1-expressing LLC-PK1 cells
# [11] = target: T1, ATP-dependent translocase ABCB1; assay: TP_TRANSPORTER: inhibition of Digoxin transepithelial transport (basal to apical) (Digoxin: 0.1 uM, Lisinopril: 50 uM) in MDR1-expressing LLC-PK1 cells
# [12] = target: T1, ATP-dependent translocase ABCB1; assay: TP_TRANSPORTER: inhibition of Digoxin transepithelial transport (basal to apical) (Digoxin: 0.1 uM, Losartan: 50 uM) in MDR1-expressing LLC-PK1 cells
# [13] = target: T1, ATP-dependent translocase ABCB1; assay: TP_TRANSPORTER: inhibition of Digoxin transepithelial transport (basal to apical)(Digoxin: 0.1 uM, Metprolol: 50 uM) in MDR1-expressing LLC-PK1 cells
# [14] = target: T1, ATP-dependent translocase ABCB1; assay: TP_TRANSPORTER: inhibition of Digoxin transepithelial transport (basal to apical) (Digoxin: 0.1 uM, Perindoprilat: 50 uM) in MDR1-expressing LLC-PK1 cells
# [15] = target: T1, ATP-dependent translocase ABCB1; assay: TP_TRANSPORTER: inhibition of Digoxin transepithelial transport (basal to apical) (Digoxin: 0.1 uM, Perindopril: 50 uM) in MDR1-expressing LLC-PK1 cells
# [16] = target: T1, ATP-dependent translocase ABCB1; assay: TP_TRANSPORTER: inhibition of Digoxin transepithelial transport (basal to apical)(Digoxin: 0.1 uM, Temocaprilat: 50 uM) in MDR1-expressing LLC-PK1 cells
# [17] = target: T1, ATP-dependent translocase ABCB1; assay: TP_TRANSPORTER: inhibition of Digoxin transepithelial transport (basal to apical)(Digoxin: 0.1 uM, Temocapril: 50 uM) in MDR1-expressing LLC-PK1 cells
# T1 sequence (P08183 whole entry): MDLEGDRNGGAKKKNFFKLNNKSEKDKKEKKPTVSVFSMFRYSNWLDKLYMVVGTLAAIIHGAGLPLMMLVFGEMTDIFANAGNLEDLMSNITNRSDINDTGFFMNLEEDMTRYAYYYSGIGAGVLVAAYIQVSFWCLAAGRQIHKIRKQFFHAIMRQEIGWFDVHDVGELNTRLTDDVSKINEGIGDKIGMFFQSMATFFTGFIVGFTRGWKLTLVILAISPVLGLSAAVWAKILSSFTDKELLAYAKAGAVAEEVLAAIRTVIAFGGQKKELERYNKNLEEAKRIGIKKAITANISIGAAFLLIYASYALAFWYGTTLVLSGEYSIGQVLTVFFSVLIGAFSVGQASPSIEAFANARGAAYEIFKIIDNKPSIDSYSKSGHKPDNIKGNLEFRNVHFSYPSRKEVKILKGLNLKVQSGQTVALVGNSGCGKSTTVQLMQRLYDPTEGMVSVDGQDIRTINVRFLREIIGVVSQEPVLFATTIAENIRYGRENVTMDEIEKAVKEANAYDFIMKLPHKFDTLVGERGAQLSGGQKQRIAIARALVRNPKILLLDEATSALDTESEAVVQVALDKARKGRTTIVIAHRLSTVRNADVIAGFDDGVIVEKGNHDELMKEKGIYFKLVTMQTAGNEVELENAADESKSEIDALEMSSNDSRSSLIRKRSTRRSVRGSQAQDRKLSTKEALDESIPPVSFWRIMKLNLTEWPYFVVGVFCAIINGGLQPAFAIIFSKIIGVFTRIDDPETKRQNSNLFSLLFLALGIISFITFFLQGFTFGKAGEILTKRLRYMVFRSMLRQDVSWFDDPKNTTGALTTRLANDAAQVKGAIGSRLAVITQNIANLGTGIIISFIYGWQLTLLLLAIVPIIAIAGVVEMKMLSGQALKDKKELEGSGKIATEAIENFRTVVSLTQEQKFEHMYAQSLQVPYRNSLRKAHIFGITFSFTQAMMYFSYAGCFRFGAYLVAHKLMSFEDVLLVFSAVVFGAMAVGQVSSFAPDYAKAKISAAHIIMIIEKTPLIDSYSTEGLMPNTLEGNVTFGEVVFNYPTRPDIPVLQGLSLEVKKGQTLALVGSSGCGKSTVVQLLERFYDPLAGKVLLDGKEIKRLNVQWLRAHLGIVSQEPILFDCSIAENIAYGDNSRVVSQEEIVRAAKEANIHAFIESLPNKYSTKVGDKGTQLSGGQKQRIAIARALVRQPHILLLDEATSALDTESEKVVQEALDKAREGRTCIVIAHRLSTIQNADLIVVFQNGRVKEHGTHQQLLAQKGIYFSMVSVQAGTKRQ
smiles,measurement,setting,value
CC(C)NCC(O)COc1ccc(CC(N)=O)cc1 (configuration not stated) [ATENOLOL],Activity,[1],is not an inhibitor [-]
CCOc1nc2cccc(C(=O)OC(C)OC(=O)OC3CCCCC3)c2n1Cc1ccc(-c2ccccc2-c2nnn[nH]2)cc1 (configuration not stated) [CANDESARTAN CILEXETIL],Activity,[2],is not an inhibitor [-]
CCOc1nc2cccc(C(=O)O)c2n1Cc1ccc(-c2ccccc2-c2nnn[nH]2)cc1 [CANDESARTAN],Activity,[3],is not an inhibitor [-]
C[C@H](CS)C(=O)N1CCC[C@H]1C(=O)O [CAPTOPRIL],Activity,[4],is not an inhibitor [-]
COc1ccccc1OCCNCC(O)COc1cccc2[nH]c3ccccc3c12 (configuration not stated) [CARVEDILOL],Activity,[5],inhibitor [+]
O=C(O)[C@H](CCc1ccccc1)N[C@H]1CCCN2CCC[C@@H](C(=O)O)N2C1=O [CILAZAPRILAT],Activity,[6],is not an inhibitor [-]
CCOC(=O)[C@H](CCc1ccccc1)N[C@H]1CCCN2CCC[C@@H](C(=O)O)N2C1=O [CILAZAPRIL],Activity,[7],is not an inhibitor [-]
CCOC(=O)[C@H](CCc1ccccc1)N[C@@H](C)C(=O)N(CC(=O)O)C1Cc2ccccc2C1 [DELAPRIL],Activity,[8],is not an inhibitor [-]
COc1cc2nc(N3CCN(C(=O)C4COc5ccccc5O4)CC3)nc(N)c2cc1OC (configuration not stated) [DOXAZOSIN],Activity,[9],inhibitor [+]
CCOC(=O)[C@H](CCc1ccccc1)N[C@@H](C)C(=O)N1CCC[C@H]1C(=O)O [ENALAPRIL],Activity,[10],is not an inhibitor [-]
NCCCC[C@H](N[C@@H](CCc1ccccc1)C(=O)O)C(=O)N1CCC[C@H]1C(=O)O [LISINOPRIL ANHYDROUS],Activity,[11],is not an inhibitor [-]
CCCCc1nc(Cl)c(CO)n1Cc1ccc(-c2ccccc2-c2nn[nH]n2)cc1 [LOSARTAN],Activity,[12],is not an inhibitor [-]
COCCc1ccc(OCC(O)CNC(C)C)cc1 (configuration not stated) [METOPROLOL],Activity,[13],is not an inhibitor [-]
CCC[C@H](N[C@@H](C)C(=O)N1[C@H](C(=O)O)C[C@@H]2CCCC[C@@H]21)C(=O)O [PERINDOPRILAT],Activity,[14],is not an inhibitor [-]
CCC[C@H](N[C@@H](C)C(=O)N1[C@H](C(=O)O)C[C@@H]2CCCC[C@@H]21)C(=O)OCC [PERINDOPRIL],Activity,[15],is not an inhibitor [-]
O=C(O)CN1C[C@@H](c2cccs2)SC[C@H](N[C@@H](CCc2ccccc2)C(=O)O)C1=O [TEMOCAPRILAT],Activity,[16],is not an inhibitor [-]
CCOC(=O)[C@H](CCc1ccccc1)N[C@H]1CS[C@H](c2cccs2)CN(CC(=O)O)C1=O [TEMOCAPRIL],Activity,[17],is not an inhibitor [-]
